Experimental data: patent publication US20230027026A1, “FUSED PYRIMIDINE COMPOUNDS, COMPOSITIONS AND MEDICINAL APPLICATIONS THEREOF” (JUBILANT BIOSYS LIMITED, priority 2019, published 2023)
Where a name gives a salt, the structure may show the parent alone.

Columns and labels:
[1] = biological target: EGFR(D770_N771insSVD) expressing Ba/F3 stable cell line (Homo sapiens, UniProt P00533, DUP768-770, cells depend on it); test: Cellular proliferation (Alamar Blue) assay, EGFR D770_N771insSVD Ba/F3; format: cell-based; conditions: EGFR D770_N771insSVD Ba/F3, 72 hr, read-out: D770 IC50
Chain of EGFR(D770_N771insSVD) expressing Ba/F3 stable cell line (P00533 with tags, fused parts or gaps DUP768-770): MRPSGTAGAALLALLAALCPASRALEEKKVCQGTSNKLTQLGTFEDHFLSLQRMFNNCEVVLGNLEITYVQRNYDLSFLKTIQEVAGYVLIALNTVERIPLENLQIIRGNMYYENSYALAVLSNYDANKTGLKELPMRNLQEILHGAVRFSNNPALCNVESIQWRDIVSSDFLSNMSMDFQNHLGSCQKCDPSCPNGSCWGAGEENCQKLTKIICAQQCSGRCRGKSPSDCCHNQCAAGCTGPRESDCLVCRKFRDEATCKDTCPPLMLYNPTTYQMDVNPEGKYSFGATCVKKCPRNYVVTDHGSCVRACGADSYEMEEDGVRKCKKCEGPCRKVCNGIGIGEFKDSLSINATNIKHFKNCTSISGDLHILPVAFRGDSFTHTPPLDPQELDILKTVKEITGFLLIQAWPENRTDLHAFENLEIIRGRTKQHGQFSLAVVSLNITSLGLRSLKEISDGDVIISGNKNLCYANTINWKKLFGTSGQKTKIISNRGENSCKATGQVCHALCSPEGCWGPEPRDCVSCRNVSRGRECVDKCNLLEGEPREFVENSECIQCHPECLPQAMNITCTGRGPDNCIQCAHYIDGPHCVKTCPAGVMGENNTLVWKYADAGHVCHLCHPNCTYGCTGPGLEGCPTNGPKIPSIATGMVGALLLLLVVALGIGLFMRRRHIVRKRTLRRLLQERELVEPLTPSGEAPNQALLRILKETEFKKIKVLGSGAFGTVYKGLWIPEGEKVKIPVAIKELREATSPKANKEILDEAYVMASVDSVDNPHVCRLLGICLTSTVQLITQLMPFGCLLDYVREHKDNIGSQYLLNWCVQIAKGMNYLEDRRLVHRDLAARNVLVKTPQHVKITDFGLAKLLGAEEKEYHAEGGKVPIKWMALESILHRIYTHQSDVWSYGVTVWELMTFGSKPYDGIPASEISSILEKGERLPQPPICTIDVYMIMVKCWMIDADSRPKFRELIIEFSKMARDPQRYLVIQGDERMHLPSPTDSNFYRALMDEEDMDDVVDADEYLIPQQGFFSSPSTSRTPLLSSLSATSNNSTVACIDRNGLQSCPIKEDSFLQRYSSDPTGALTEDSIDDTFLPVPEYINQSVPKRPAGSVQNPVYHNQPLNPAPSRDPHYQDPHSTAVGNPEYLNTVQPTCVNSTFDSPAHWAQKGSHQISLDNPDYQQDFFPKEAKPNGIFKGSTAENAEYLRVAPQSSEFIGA
How it was run: (§1)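 Alamar Blue proliferation read-out (3 h incubation, ex 540/em 590 nm) after 72 h compound exposure at 37 °C, 5% CO2, using final concentrations of 10-0.0005 μM in 3-fold steps. Cells: engineered Ba/F3 lines at 15,000 per well in RPMI/10% FBS, and BT-474.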

[2] = biological target: T1, EGFR (T790M/L858R) (Homo sapiens, UniProt P00533, L858R/T790M); test: EGFR L858R/T790M enzyme inhibition assay (HTRF); format: biochemical; conditions: 5 μM ATP, 60 min, read-out: EGFR_L858R T790M_IC50_nM
T1 construct: GST; purchased Proqinase
T1 sequence (P00533 25-1210 T790M/L858R): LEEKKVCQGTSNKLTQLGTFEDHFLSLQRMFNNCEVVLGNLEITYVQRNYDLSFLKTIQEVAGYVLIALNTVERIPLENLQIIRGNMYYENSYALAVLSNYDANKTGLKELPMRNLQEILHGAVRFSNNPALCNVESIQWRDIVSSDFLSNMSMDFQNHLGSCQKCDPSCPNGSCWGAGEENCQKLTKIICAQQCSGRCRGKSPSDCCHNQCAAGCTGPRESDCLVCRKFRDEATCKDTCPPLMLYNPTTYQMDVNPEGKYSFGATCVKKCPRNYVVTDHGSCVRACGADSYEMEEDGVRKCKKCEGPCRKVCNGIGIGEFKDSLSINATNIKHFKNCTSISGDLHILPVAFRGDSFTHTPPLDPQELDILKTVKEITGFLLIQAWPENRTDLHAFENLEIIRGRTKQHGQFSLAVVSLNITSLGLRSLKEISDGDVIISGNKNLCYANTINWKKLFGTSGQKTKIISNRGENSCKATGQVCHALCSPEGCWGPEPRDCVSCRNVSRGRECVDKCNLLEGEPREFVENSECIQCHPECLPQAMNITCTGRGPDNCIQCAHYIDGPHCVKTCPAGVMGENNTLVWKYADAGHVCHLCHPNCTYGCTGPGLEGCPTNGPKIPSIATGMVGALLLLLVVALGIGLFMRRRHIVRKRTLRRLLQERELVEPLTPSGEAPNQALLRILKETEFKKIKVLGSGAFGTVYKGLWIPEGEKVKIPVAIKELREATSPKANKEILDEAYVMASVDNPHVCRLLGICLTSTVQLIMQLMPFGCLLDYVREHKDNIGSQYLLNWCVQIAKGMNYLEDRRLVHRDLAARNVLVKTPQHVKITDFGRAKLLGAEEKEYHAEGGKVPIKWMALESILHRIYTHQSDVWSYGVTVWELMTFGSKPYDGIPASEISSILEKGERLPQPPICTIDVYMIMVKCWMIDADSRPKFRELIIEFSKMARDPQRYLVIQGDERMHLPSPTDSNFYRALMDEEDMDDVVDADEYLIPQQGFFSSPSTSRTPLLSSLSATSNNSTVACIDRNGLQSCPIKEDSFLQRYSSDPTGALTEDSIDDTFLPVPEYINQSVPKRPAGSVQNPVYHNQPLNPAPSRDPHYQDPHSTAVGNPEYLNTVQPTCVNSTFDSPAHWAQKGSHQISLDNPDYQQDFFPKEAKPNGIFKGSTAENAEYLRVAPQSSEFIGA
Procedure: Example 2: EGFR L858R & Del19/T790M Assay Protocol (to Find the IC50 for the Compounds Using HTRF Method)
Reagents for Enzyme Assay:
• 1. Enzyme Assay Buffer: 60 mM HEPES (pH 7.4), 50 mM NaCl, 20 mM MgCl2, 5 mM MnCl2, filtered using 0.2 μm pore size, stored at 4° C. • Supplements (added fresh to the enzyme buffer): 1M DTT stock was made, 5% BSA stock and 0.1M Na3OV4 stored at 4° C. Enzyme assay buffer 50 mL, 1 M DTT 100 μL, 5% BSA 500 μL, 0.1 M Na3OV4 50 μL. • 2. GST-hEGFR (L858R), active: EGFR (T790M/L858R), active (Proqinase), 3.6 μM stock; 2.5 nM in final assay. • 3. Gastrin Precusor-Biotinylated: Gastrin precursor (Tyr87) biotinylated peptide, EEAY*GWM, Cell Signaling Tech 1310, Lot-7, Want final 0.5 μM in assay. • 4. ATP: 10 mM stock in 100 μL Enzyme assay buffer pH 7.4 prepared freshly, want 5 μM in final assay. • 5. Test compounds: Powders were dissolved in 100% DMSO and made up to a final stock concentration of 10 mM (volume in μL to add for 10 mM=mg powder X 10^5/MW). Final compound concentration in the assay plate started at 10 μM.
• 1. HTRF buffer: 50 mM Tris —HCl, pH-7.5, 100 mM NaCl, 0.1% BSA, 0.05% Tween20, 0.5 mM EDTA, filtered using 0.2 μm pore size, stored at 4° C. • Phycolink® Streptavidin-Allophycocyanin (SA-APC) Prozyme, Cat. #PJ25S, Lot #896 085, 2.06 mg/mL, APC concentration is 11.6 μM, streptavidin concentration is 15.5 μM. Want 12 nM final in assay (based on streptavidin concentration). • 2. (Europium) Eu-W1024 Anti-phosphotyrosine (PT-66) Antibody: Perkin Elmer (Product Number: AD0068), monoclonal IgG1 that recognizes phosphotyrosine peptide 100 μg/ml stock. Want 0.1 nM final in assay.
• 1. The compound dilution was made by TECAN as per the above scheme. • 2. 16 μL of diluted compound was added to the assay plate by using TECAN. • 3. 10 μL of enzyme mix was added to each well except mins. • 4. 20 μL of substrate and ATP mix were added into each well of the assay plate, manually. • 5. The plate was incubated on a laboratory shaker at room temperature for 60 min. • 6. Meanwhile, the HTRF mix was prepared and 75 μL was added to the HTRF plate. • 7. When the incubation was over, 10 μL of the reaction mixture was transferred to the HTRF assay plate and incubated on a laboratory shaker for 30 min at room temperature. • 8. The reading was taken in Pherastar (ext 337 nm, Em 665 & 620 nm). • 9. The results were analyzed using Graphpad prism after calculation of the z factor, signal window and % inhibition to get the IC50.

[3] = tested on: A431 cells; test: Cellular proliferation (Alamar Blue) assay, A431; format: cell-based; conditions: Homo sapiens, A-431; A431 cells, 72 hr, Alamar Blue; read-out: A431 IC50
How it was run: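 Seventy-two-hour growth assay with 3-fold compound titration (final 10–0.0005 μM) and Alamar Blue fluorescence end point, ex 540/em 590 nm.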

[4] = biological target: EGFR (A767_dupASV) expressing Ba/F3 stable cell line (Homo sapiens, UniProt P00533, DUP767-769, cells depend on it); test: Cellular proliferation (Alamar Blue) assay, EGFR A767_dupASV Ba/F3; format: cell-based; conditions: EGFR A767_dupASV Ba/F3, 72 hr, read-out: A767 IC50
Chain of EGFR (A767_dupASV) expressing Ba/F3 stable cell line (P00533 with tags, fused parts or gaps DUP767-769): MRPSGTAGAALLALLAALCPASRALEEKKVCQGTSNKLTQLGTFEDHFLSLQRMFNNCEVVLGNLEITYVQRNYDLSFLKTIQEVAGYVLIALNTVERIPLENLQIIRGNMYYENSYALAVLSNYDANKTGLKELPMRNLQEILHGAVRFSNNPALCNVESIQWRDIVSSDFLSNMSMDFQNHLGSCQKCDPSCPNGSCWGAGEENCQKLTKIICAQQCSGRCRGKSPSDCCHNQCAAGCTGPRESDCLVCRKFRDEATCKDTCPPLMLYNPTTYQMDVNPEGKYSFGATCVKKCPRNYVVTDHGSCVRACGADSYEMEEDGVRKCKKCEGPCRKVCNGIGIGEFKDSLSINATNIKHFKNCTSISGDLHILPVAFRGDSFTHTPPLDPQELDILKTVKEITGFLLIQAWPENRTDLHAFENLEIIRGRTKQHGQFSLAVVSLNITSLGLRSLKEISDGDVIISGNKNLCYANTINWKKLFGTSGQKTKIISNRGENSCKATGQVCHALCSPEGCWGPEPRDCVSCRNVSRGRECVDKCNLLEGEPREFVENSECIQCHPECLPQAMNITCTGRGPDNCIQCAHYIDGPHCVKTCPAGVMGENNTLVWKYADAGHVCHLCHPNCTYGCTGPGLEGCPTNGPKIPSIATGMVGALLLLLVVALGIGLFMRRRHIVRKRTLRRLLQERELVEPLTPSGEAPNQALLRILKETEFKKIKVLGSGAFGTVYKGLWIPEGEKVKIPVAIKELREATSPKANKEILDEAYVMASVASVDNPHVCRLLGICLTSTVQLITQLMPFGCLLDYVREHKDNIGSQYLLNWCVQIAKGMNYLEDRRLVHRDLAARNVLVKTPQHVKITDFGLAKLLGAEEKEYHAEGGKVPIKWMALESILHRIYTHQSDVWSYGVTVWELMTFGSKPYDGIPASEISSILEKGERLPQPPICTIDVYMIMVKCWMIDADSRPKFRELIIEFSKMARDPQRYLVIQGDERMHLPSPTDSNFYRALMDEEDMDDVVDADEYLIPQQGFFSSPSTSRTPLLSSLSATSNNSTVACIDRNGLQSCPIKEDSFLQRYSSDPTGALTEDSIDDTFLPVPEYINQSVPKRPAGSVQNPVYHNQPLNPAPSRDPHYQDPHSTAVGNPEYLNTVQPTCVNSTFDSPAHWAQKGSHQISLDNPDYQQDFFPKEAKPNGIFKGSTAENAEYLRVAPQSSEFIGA
How it was run: as §1

[5] = tested on: H1975 cells (L858R_T790M mutant); test: H1975 proliferation assay; format: cell-based; conditions: Homo sapiens, NCI-H1975; read-out: Proliferation_Assay H1975 cells-EC50_nM L858R_T790M_mutant
[6] = biological target: HER2 (A775_G776insYVMA) expressing Ba/F3 stable cell line (Homo sapiens, UniProt P04626, DUP772-775, cells depend on it); test: Cellular proliferation (Alamar Blue) assay, HER2 YVMA Ba/F3; format: cell-based; conditions: HER2 A775_G776insYVMA Ba/F3, 72 hr, read-out: YVMA IC50
Chain of HER2 (A775_G776insYVMA) expressing Ba/F3 stable cell line (P04626 with tags, fused parts or gaps DUP772-775): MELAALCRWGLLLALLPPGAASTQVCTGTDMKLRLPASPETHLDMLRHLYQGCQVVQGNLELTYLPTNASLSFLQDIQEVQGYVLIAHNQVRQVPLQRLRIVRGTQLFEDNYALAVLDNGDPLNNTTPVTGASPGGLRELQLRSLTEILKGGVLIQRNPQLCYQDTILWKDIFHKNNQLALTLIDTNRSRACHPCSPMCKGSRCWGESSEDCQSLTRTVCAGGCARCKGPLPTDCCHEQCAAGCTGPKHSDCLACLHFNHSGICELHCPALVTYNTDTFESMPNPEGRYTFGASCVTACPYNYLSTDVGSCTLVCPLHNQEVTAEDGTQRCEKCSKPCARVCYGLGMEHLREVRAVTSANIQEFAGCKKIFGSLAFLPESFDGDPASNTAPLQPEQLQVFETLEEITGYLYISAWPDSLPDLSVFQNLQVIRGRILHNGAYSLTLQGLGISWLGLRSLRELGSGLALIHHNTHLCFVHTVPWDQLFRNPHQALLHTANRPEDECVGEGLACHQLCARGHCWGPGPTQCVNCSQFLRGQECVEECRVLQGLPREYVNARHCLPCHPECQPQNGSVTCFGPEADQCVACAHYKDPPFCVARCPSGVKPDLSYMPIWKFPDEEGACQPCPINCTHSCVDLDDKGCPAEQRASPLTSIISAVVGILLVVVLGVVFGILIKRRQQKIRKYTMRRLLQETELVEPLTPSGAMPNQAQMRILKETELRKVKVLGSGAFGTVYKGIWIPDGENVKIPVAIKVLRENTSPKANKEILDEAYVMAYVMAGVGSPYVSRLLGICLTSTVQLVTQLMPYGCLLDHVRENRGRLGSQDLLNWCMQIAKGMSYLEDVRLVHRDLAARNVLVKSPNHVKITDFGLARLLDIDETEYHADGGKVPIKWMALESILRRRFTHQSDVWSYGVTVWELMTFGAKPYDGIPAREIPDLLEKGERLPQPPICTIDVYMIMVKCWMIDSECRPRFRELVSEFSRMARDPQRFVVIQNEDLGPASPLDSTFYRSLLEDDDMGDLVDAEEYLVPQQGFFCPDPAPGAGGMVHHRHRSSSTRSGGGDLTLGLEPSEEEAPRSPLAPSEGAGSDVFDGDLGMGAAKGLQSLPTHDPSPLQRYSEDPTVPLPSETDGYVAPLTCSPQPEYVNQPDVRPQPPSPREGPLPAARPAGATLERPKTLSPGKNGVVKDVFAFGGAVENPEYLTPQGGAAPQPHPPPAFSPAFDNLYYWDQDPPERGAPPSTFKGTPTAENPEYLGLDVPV
Procedure: Example 3: Cellular Proliferation (Alamar Blue) Assays
• 1. EGFR(D770_N771insSVD) expressing Ba/F3 stable cell line • 2. EGFR (A767_dupASV) expressing Ba/F3 stable cell line • 3. A431 cells • 4. BTER2 (A775_G776insYVMA) expressing Ba/F3 stable cell line • 5. BTER2 (WT) expressing Ba/F3 stable cell line • 6. BT-474 cells
• 1. Seed cells at 5000 for A431 and 15,000 cells for Ba/F3 in 100 μL/well in complete media (for A431: DMEM with 10% FBS and for Ba/F3 cells: RPMI with 10% FBS) in 96-well tissue culture plate. Leave outer wells without cells for background measurements. Incubate at 37 degree Celsius in 5% CO2 humidified incubator for 16-18 hours. • 2. Add 0.025 ml of 5× concentration compound dilution or DMSO control. Final compound concentration range is 10-0.0005 μM prepared in 3-fold serial dilutions. Incubate for 72 hr at 37 degree Celsius in […] humidified incubator. • 3. Add 0.0125 mL Alamar Blue™ reagent to each well with multi-channel pipette and tap gently on each side of the plate to mix. Incubate for 3 hours at 37 degree Celsius in […] humidified incubator. • 4. Read plates on fluorescence reader (Tecan Spark Control, Device: Spark, Serial #: 1801006040) at 540 nm excitation, 590 nm emission wavelength. • 5. Data analysis was performed using XLfit 5.5.0.5.

Row | SMILES | GI50 [1] | IC50 [2] | IC50 [3] | GI50 [4] | EC50 [5] | GI50 [6]
1 | CC(c1ccccc1)N1Cc2cnc(Nc3cnn(C)c3)nc2N(c2cccc(NC(=O)/C=C/CN(C)C)c2)C1=O (racemic) [Compound 10, (E)-4-(dimethylamino)-N-(3-(7-((1-methyl-1H-pyrazol-4-yl)amino)-2-oxo-3-(1-phenylethyl)-3,4-dihydropyrimido[4,5-d]pyrimidin-1(2H)-yl)phenyl)but-2-enamide] | 108 nM | 4 nM | 638 nM | 105 nM | 4.5 nM | –
2 | C=CC(=O)Nc1cccc(N2C(=O)N(Cc3ccccc3)Cc3cnc(Nc4cnn(C5CC5)c4)nc32)c1 [Compound 5, N-(3-(3-benzyl-7-((1-cyclopropyl-1H-pyrazol-4-yl)amino)-2-oxo-3,4-dihydropyrimido[4,5-d]pyrimidin-1(2H)-yl)phenyl)acrylamide] | – | 1 nM | – | – | 5.7 nM | –
3 | CN(C)C/C=C/C(=O)Nc1cccc(N2C(=O)N(Cc3ccccc3)Cc3cnc(Nc4cnn(C5CC5)c4)nc32)c1 [Compound 7, (E)-N-(3-(3-benzyl-7-((1-cyclopropyl-1H-pyrazol-4-yl)amino)-2-oxo-3,4-dihydropyrimido[4,5-d]pyrimidin-1(2H)-yl)phenyl)-4-(dimethylamino)but-2-enamide] | – | 6 nM | – | – | 9.3 nM | –
4 | C=CC(=O)Nc1cccc(N2C(=O)N(c3ccc(F)cc3)Cc3cnc(Nc4cnn(C)c4)nc32)c1 [Compound 17, N-(3-(3-(4-fluorophenyl)-7-((1-methyl-1H-pyrazol-4-yl)amino)-2-oxo-3,4-dihydropyrimido[4,5-d]pyrimidin-1(2H)-yl)phenyl)acrylamide] | – | 0.5 nM | – | – | 0.7 nM | –
5 | Cc1cnc(Nc2ncc3c(n2)N(c2cccc(NC(=O)/C=C/CN(C)C)c2)C(=O)N(Cc2ccccc2)C3)s1 [Compound 19, (E)-N-(3-(3-benzyl-7-((5-methylthiazol-2-yl)amino)-2-oxo-3,4-dihydropyrimido[4,5-d]pyrimidin-1(2H)-yl)phenyl)-4-(dimethylamino)but-2-enamide] | – | 6 nM | – | – | 16 nM | –
6 | CN(C)C/C=C/C(=O)Nc1cccc(N2C(=S)N(c3ccccc3)Cc3cnc(Nc4cn(C)nc4Cl)nc32)c1 [Compound 51, (E)-N-(3-(7-((3-chloro-1-methyl-1H-pyrazol-4-yl)amino)-3-phenyl-2-thioxo-3,4-dihydropyrimido[4,5-d]pyrimidin-1(2H)-yl)phenyl)-4-(dimethylamino)but-2-enamide] | – | 8 nM | – | – | 9.8 nM | –
7 | CN(C)C1CCN(C/C=C/C(=O)Nc2cccc(N3C(=O)N(c4ccccc4)Cc4cnc(Nc5cn(C)nc5Cl)nc43)c2)CC1 [Compound 124, (E)-N-(3-(7-((3-chloro-1-methyl-1H-pyrazol-4-yl)amino)-2-oxo-3-phenyl-3,4-dihydropyrimido[4,5-d]pyrimidin-1(2H)-yl)phenyl)-4-(4-(dimethylamino)piperidin-1-yl)but-2-enamide] | 4980 nM | – | ≥ 10000 nM | 2760 nM | – | 1480 nM
8 | CC#CC(=O)Nc1cccc(N2C(=O)N(c3ccccc3)Cc3cnc(Nc4cn(C)nc4Cl)nc32)c1 [Compound 125, N-(3-(7-((3-chloro-1-methyl-1H-pyrazol-4-yl)amino)-2-oxo-3-phenyl-3,4-dihydropyrimido[4,5-d]pyrimidin-1(2H)-yl)phenyl)but-2-ynamide] | 338 nM | – | ≥ 10000 nM | 269 nM | – | 445 nM
9 | C=CC(=O)Nc1ccc(F)c(N2C(=O)N(c3ccccc3)Cc3cnc(Nc4cn(C)nc4Cl)nc32)c1 [Compound 128, N-(3-(7-((3-chloro-1-methyl-1H-pyrazol-4-yl)amino)-2-oxo-3-phenyl-3,4-dihydropyrimido[4,5-d]pyrimidin-1(2H)-yl)-4-fluorophenyl)acrylamide trifluoroacetate salt] | 12 nM | – | ≥ 10000 nM | 11 nM | – | 24 nM
10 | C=CC(=O)Nc1cccc(N2C(=O)N(c3ccccc3)Cc3cnc(Nc4cn(C5CCC(O)CC5)nc4Cl)nc32)c1 (stereo not shown) [Compound 129, N-(3-(7-((3-chloro-1-(4-hydroxycyclohexyl)-1H-pyrazol-4-yl)amino)-2-oxo-3-phenyl-3,4-dihydropyrimido[4,5-d]pyrimidin-1(2H)-yl)phenyl)acrylamide trifluoroacetate salt] | 333 nM | – | ≥ 10000 nM | 157 nM | – | 312 nM
11 | C=CC(=O)Nc1ccc(N2C(=O)N(c3ccccc3)Cc3cnc(Nc4cn(C)nc4Cl)nc32)cc1 [Compound 131, N-(4-(7-((3-chloro-1-methyl-1H-pyrazol-4-yl)amino)-2-oxo-3-phenyl-3,4-dihydropyrimido[4,5-d]pyrimidin-1(2H)-yl)phenyl)acrylamide] | 765 nM | – | 3510 nM | 373 nM | – | 1130 nM
12 | O=C(/C=C/CF)Nc1cccc(N2C(=O)N(c3ccccc3)Cc3cnc(Nc4cccnc4F)nc32)c1 [Compound 135, (E)-4-fluoro-N-(3-(7-((2-fluoropyridin-3-yl)amino)-2-oxo-3-phenyl-3,4-dihydropyrimido[4,5-d]pyrimidin-1(2H)-yl)phenyl)but-2-enamide] | 120 nM | – | > 10000 nM | 43 nM | – | 294 nM
13 | C=CC(=O)Nc1cccc(N2C(=O)N(c3ccccc3)Cc3cnc(Nc4cn(C5COC5)nc4Cl)nc32)c1 [Compound 136, N-(3-(7-((3-chloro-1-(oxetan-3-yl)-1H-pyrazol-4-yl)amino)-2-oxo-3-phenyl-3,4-dihydropyrimido[4,5-d]pyrimidin-1(2H)-yl)phenyl)acrylamide] | 29 nM | – | > 10000 nM | 15 nM | – | 63 nM
